From ChEMBL document CHEMBL1909593, “Identification of novel plasmin inhibitors possessing nitrile moiety as warhead” (Bioorg Med Chem Lett, 2011)

Assays:
Plasminogen [1] = target: T1, Plasminogen (Homo sapiens, UniProt P00747); assay: Inhibition of plasmin
Plasma kallikrein [2] = target: T2, Plasma kallikrein (Homo sapiens, UniProt P03952); assay: Inhibition of plasma kallikrein at 1000 uM
[3] = target: Urokinase-type plasminogen activator (Homo sapiens) (UniProt P00749); assay: Inhibition of urokinase at 1000 uM
[4] = target: Urokinase-type plasminogen activator (Homo sapiens) (UniProt P00749); assay: Inhibition of urokinase at 200 uM
[5] = target: Urokinase-type plasminogen activator (Homo sapiens) (UniProt P00749); assay: Inhibition of urokinase at 400 uM
Plasma kallikrein [6] = target: T2, Plasma kallikrein; assay: Inhibition of plasma kallikrein at 250 uM
Plasminogen [7] = target: T1, Plasminogen; assay: Inhibition of plasmin at 250 uM
Plasma kallikrein [8] = target: T2, Plasma kallikrein; assay: Inhibition of plasma kallikrein
[9] = target: Urokinase-type plasminogen activator (Homo sapiens) (UniProt P00749); assay: Inhibition of urokinase at 500 uM

T2 sequence (P03952 20-390 limits assumed): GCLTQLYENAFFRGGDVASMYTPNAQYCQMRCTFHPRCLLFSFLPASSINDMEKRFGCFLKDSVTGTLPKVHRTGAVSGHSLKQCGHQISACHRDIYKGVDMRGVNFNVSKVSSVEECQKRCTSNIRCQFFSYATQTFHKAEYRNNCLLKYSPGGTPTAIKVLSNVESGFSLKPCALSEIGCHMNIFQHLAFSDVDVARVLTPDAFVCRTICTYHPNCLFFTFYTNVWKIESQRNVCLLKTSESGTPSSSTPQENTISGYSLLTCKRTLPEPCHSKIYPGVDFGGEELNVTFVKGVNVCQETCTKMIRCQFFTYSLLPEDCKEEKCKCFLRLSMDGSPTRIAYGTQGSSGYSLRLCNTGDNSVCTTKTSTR
T2 sequence (P03952 391-638 limits assumed): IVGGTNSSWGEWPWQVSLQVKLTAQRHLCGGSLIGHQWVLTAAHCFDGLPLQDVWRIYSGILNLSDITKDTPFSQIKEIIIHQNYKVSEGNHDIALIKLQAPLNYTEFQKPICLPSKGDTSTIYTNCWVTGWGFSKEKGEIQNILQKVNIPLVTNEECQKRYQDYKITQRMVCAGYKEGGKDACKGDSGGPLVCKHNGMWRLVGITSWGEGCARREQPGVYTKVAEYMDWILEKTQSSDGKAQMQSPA
T1 sequence (P00747 97-580 limits assumed): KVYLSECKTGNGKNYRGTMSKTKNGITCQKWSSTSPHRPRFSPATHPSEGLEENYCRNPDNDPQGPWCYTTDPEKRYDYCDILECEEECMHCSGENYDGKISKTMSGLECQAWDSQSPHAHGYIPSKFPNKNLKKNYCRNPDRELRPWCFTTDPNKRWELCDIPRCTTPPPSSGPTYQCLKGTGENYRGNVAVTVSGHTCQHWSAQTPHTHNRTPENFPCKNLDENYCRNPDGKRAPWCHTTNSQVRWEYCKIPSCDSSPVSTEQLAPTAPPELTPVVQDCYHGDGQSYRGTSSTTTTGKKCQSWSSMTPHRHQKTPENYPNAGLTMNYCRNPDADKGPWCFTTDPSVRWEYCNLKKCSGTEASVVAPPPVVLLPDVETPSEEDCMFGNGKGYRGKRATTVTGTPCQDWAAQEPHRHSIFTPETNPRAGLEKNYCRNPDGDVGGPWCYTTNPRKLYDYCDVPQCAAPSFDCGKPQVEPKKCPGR
T1 sequence (P00747 581-810 limits assumed): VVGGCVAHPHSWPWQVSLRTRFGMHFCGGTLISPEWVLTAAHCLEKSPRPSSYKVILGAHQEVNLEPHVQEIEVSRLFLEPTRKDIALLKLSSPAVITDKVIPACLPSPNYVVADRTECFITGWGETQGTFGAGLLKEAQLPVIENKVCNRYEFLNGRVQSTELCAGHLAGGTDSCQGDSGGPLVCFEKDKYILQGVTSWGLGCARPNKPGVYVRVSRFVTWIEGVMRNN

Row | Compound | IC50 (Plasminogen [1]) [µM] | inhibition (Plasma kallikrein [2]) [%] | inhibition [3] [%] | inhibition [4] [%] | IC50 (Plasma kallikrein [8]) [µM] | also measured
1 | N#C[C@H](CCCCN)NC(=O)c1ccc(OCc2ccncc2)cc1 | 240 | 45 | 16 |  |  | 
2 | N#C[C@H](CCCCN)NC(=O)c1ccc(OCc2ccncc2)c(NC(=O)CCc2c[nH]c3ccccc23)c1 | 370 | 44 |  | 0 |  | 
3 | N#C[C@H](CCCCN)NC(=O)c1ccc(OCc2ccncc2)c(NC(=O)CCc2cn(Cc3ccc(F)cc3)c3ccccc23)c1 | 140 | 0 |  |  |  | inhibition [5]: 0%
4 | COc1ccc(C(=O)N[C@H](C#N)CCCCN)cc1NC(=O)CCc1cn(Cc2ccc(F)cc2)c2ccccc12 |  |  |  | 0 |  | inhibition (Plasma kallikrein [6]): 22%; inhibition (Plasminogen [7]): 0%
5 | CC[C@@H](C)[C@@H](N)C(=O)N[C@@H](Cc1ccccc1)C(=O)N[C@H](C#N)CCCCN | 78 | 38 | 15 |  |  | 
6 | N#C[C@H](CCCCN)NC(=O)c1ccc(OCc2ccncc2)c(NC(=O)Cc2cccc3ccccc23)c1 | 570 |  |  |  | 680 | inhibition [9]: 16%
7 | CC[C@@H](C)[C@@H](N)C(=O)N[C@@H](Cc1ccccc1)C(=O)N[C@@H](CCCCN)C(N)=O | 290 | 0 | 0 |  |  | 
8 | N#C[C@H](CCCCN)NC(=O)c1ccc(OCc2ccncc2)c(NC(=O)Cc2ccc(F)cc2)c1 | 590 | 11 | 19 |  |  | 
9 | N#C[C@H](CCCCN)NC(=O)c1ccc(OCc2ccncc2)c(NC(=O)Cc2ccc3ccccc3c2)c1 | 220 |  |  |  | 380 | inhibition [9]: 20%
10 | CC(C)(C)OC(=O)n1cc(CCC(=O)Nc2cc(C(=O)N[C@H](C#N)CCCCN)ccc2OCc2ccncc2)c2ccccc21 | 220 |  |  | 0 | 910 | 
